We go through 13 compounds from patent publication US12636275B2, “Pharmaceutical use of ketoamide-based compound” (Shanghai Institute of Materia Medica, Chinese Academy of …, priority 2020, dated 2026).

As a reminder, the IC50 is the concentration at which inhibition is half-maximal. In general, EC50 refers to the concentration that produces a half-maximal response. The term inhibition denotes the relative decrease from the control value, in per cent.

Read-outs that look alike come from different tables or passages of the source.

The target of one series is human cathepsin L (Homo sapiens, UniProt P07711). Briefly: Inhibitory activity against human cathepsin L (FRET, Z-Phe-Arg-AMC substrate). The format is biochemical. Particulars: pH 5.5, 25° C. The protocol: To determine the inhibitory activity of the compound against human cathepsin L (CatL): the enzyme level inhibitory activity against cathepsin L was determined by fluorescence resonance energy transfer (FRET) technique. In a 96-well plate, 10 μL buffer (50 mM CH3COONa, pH 5.5, 1 mM DTT, 2 mM EDTA) was added to each well, while 0.2 μL of compound (final concentrations were 100 nM, 10 nM, 1 nM, 0.1 nM and 0.01 nM, respectively) and 10 μL cathepsin L were added, and incubated at 25° C. for 15 min. Then 10 μL fluorescent substrate (Z-Phe-Arg-AMC, final concentration was 20 μM) diluted with buffer was added. The fluorescence parameters were determined by Tecan Infinite 200pro fluorescence spectrophotometer. The excitation wavelength and emission wavelength were 360 nm and 465 nm respectively, kept at 25° C., and the data were read after 30 min. A negative control was used, in which no compound was added to the control, and the rest was the same.

For series [1], the system named is 2019 novel coronavirus (2019-nCov). Description: Inhibitory activity on replication of 2019 novel coronavirus (cytopathic effect, MTS, RD cells). The format is cell-based. The following applies: for virus inhibitory activity (in words): CQ as positive control, different concentration gradients; for EC50: Severe acute respiratory syndrome coronavirus 2, RD, read-out: EC50, inhibition of 2019-nCoV virus replication. On the technique in general: Damage to the host cells serves as the signal in cytopathic effect assays.

In a further series the target is T1, 2019-nCoV 3CL protease (Severe acute respiratory syndrome coronavirus 2, UniProt P0DTD1).
T1 construct: against 3CL protease of 2019 novel coronavirus (2019-nCoV 3CL^pro)
Briefly: Inhibitory activity against 3CL protease of 2019 novel coronavirus (FRET). It is filed as biochemical. The following applies: for IC50: FRET, 37° C., substrate 20 μM. As to the method:
To determine the inhibitory activity of the compound against 3CL protease of 2019 novel coronavirus (2019-nCoV 3CL^pro): the enzyme level inhibitory activity of inhibitors against 3CL protease was determined by fluorescence resonance energy transfer (FRET) technology. In a 96-well plate, 27.5 μL of buffer (20 mM Tris, 100 mM NaCl, 1 mM EDTA, pH 7.4) was added to each well, 2.5 μL compounds ([…], respectively) and 5 μL […] (final concentration was 3 μM) were added at the same time. Incubated at 37° C. for 15 min. Then 15 μL fluorescent substrate diluted with buffer (final concentration was 20 μM) was added. The fluorescence parameters were determined by Ge n5 fluorescence spectrophotometer. The excitation wavelength and emission wavelength were 340 nm and 490 nm respectively, kept at 37° C., and the data were read after 10 min. A negative control was used, in which no compound was added to the control, and the rest was the same.

Series [2] relates to 2019 novel coronavirus (2019-nCov). The following applies: stated for positive control; read-out: EC50, inhibition of 2019-nCoV virus replication (positive compound CQ); cited from earlier work.
Series [3] can be described thus: Toxicity test in SD rats with repeated intravenous administration. The format is in vivo. The source says:
The purpose of this experiment is to observe the potential toxicity of SD rats after intravenous DC406009 for 7 consecutive days and to determine the possible toxic target organs. To provide non-toxic dose and/or toxic dose for the subsequent toxicity test design and clinical trial protocol design. To assess the level of drug exposure in vivo, a toxicokinetic evaluation is accompanied.
36 SD rats were divided into 8 groups (3 in toxicity test group/gender/group, a total of 5 groups; 1 in toxic satellite group/gender/group, 3 groups), intravenous injection of solvent (5% DMSO/5% EtOH/40% PEG300/50% NaCl), 0.9% sodium chloride injection and DC406009 (5, 15, 30 mg/kg/day), once a day for 7 consecutive days, all animals were euthanized on Day 8. During the test, the following indicators were evaluated: toxicology (only samples were collected), clinical observation, body weight, food consumption, clinical pathology (hematology, hemagglutination, plasma biochemistry) and anatomical macroscopic morphological observation.

human cathepsin L, sequence (P07711 114-333): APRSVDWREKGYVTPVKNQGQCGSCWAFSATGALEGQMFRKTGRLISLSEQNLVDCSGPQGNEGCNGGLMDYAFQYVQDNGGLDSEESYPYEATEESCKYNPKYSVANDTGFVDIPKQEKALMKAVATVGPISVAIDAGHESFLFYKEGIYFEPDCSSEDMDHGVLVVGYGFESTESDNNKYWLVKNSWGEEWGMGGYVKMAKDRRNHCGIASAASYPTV

On human cathepsin L, `O=C(NCc1ccccc1)C(=O)[C@H](C[C@@H]1CCCNC1=O)NC(=O)[C@H](Cc1ccc(F)c(F)c1)NC(=O)c1cc2ccccc2o1` [Example A290] yielded a 50% inhibitory concentration (IC50) of 0.47 ± 0.06 nM.
As to `O=C(NCc1ccccc1)C(=O)[C@H](C[C@@H]1CCCNC1=O)NC(=O)[C@H](CC1CCCCC1)NC(=O)c1cc2ccccc2o1` [Example A13, N—((S)-1-(((S)-4-(benzylamino)-3,4-dione-1-((S)-2-oxopiperidin-3-yl)but-2-yl)amino)-3-cyclohexyl-1-oxopropan-2-yl)-benzofuran-2-carboxamide], the 50% inhibitory concentration (IC50) against human cathepsin L came to 1.36 ± 0.04 nM. Also, in series [1], the “virus inhibitory activity (in words)” value is “excellent virus inhibitory activity” and the EC50 is 9240 nM. Further, the IC50 on 2019-nCoV 3CL protease is 2.4 µM.
Consider `CCN(CC)CCCC(C)Nc1ccnc2cc(Cl)ccc12` (centres unmarked) [CQ], for which, in series [2], the concentration giving a half-maximal response (EC50) is 1130 nM.
In turn, `O=C(NCc1ccccc1)C(=O)[C@H](C[C@@H]1CCCNC1=O)NC(=O)[C@H](Cc1ccc(F)cc1)NC(=O)c1cc2ccccc2o1` [Example A289] registered an IC50 at human cathepsin L of 0.66 ± 0.008 nM. In addition, the “virus inhibitory activity (in words)” value in series [1] was “excellent virus inhibitory activity”; in series [1] (listed as 6009) it was “better than that of positive control CQ”. The EC50 in series [1] came to 296 nM. For the same compound, the inhibition at 1 µM on 2019-nCoV 3CL protease (compound 1 uM, read-out: 1 uM inhibition rate) was 13.5%. For the same compound, at 2019-nCoV 3CL protease (compound 10 uM, read-out: 10 uM inhibition rate), the inhibition at 10 µM came out at 40.8%. The “tolerability (in words)” value in series [3] (SD rats, 5, 15, 30 mg/kg/day intravenously once a day for 7 consecutive days) was “animals can tolerate”. In series [3] (both sexes, SD, rat, in vivo, iv), the MTD at 7 days is greater than 30 mg/kg/day.
Compound `O=C(NCc1ccccc1)C(=O)[C@H](C[C@@H]1CCCNC1=O)NC(=O)[C@H](CC1CCCCC1)NC(=O)c1cc2ccccc2[nH]1` [Example A5, N—((S)-1-(((S)-4-(benzylamino)-3,4-dione-1-((S)-2-oxopiperidin-3-yl)but-2-yl)amino)-3-cyclohexyl-1-oxopropan-2-yl)-1H-indole-2-carboxamide] registered an IC50 against human cathepsin L of 0.45 ± 0.02 nM.
Same read-out and setting: the result for `O=C(NCc1ccccc1)C(=O)[C@H](C[C@@H]1CCCNC1=O)NC(=O)[C@H](Cc1cccc(F)c1)NC(=O)c1cc2ccccc2o1` [Example A284] reads 0.45 ± 0.01 nM; that for `O=C(NC1CC1)C(=O)[C@H](C[C@@H]1CCCNC1=O)NC(=O)[C@H](CC1CCCCC1)NC(=O)c1cc2ccccc2o1` [Example A309, N—((S)-1-(((S)-4-(cyclopropylamino)-3,4-dione-1-((S)-2-oxopiperidin-3-yl)but-2-yl)amino)-3-cyclohexyl-1-oxopropan-2-yl)-benzofuran-2-carboxamide], 0.63 ± 0.08 nM.
On to `O=C(NCc1ccccc1)C(=O)[C@H](C[C@@H]1CCNC1=O)NC(=O)[C@H](CC1CCCCC1)NC(=O)c1ccc2ccccc2n1` [Example A42, N—((S)-1-(((S)-4-(benzylamino)-3,4-dione-1-((S)-2-oxopyrrolidin-3-yl)but-2-yl)amino)-3-cyclohexyl-1-oxopropan-2-yl)-quinoline-2-carboxamide], for which, in series [1], the “virus inhibitory activity (in words)” value is on record as “excellent virus inhibitory activity” and the 50% effective concentration (EC50) was 580 nM. For the same compound, the “virus inhibitory activity (in words)” value in series [1] (listed as 4001) was “better than that of positive control CQ”. 3 µM corresponded to half-maximal inhibition against 2019-nCoV 3CL protease (IC50).
As for `O=C(NC1CC1)C(=O)[C@H](C[C@@H]1CCCNC1=O)NC(=O)[C@H](Cc1ccc(F)cc1)NC(=O)c1cc2ccccc2o1` [Example A310, N—((S)-1-(((S)-4-(cyclopropylamino)-3,4-dione-1-((S)-2-oxopiperidin-3-yl)but-2-yl)amino)-3-(4-fluorophenyl)-1-oxopropan-2-yl)-benzofuran-2-carboxamide], the half-maximal inhibitory concentration (IC50) against human cathepsin L came to 0.57 ± 0.01 nM.
`CCOc1ccc2oc(C(=O)N[C@@H](CC3CCCCC3)C(=O)N[C@@H](C[C@@H]3CCCNC3=O)C(=O)C(=O)NCc3ccccc3)cc2c1` [Example A259, N—((S)-1-(((S)-4-(benzylamino)-3,4-dione-1-((S)-2-oxopiperidin-3-yl)but-2-yl)amino)-3-cyclohexyl-1-oxopropan-2-yl)-5-ethoxyl-benzofuran-2-carboxamide] gave an IC50 against 2019-nCoV 3CL protease of 9.5 µM.
On the same count and under the same terms, the value for `O=C(CC[C@H](NC(=O)[C@H](Cc1ccccc1)NC(=O)c1cnc2ccccc2n1)C(=O)C(=O)NCc1ccccc1)NC1CCCCC1` [Example A239, N—((S)-1-(((S)-4-(benzyl)-3,4-dione-1-(cyclohexylamino)-2-yl)amino)-3-(phenyl)-1-oxopropan-2-yl)-quinoxaline-2-carboxamide] was 3.8 µM; that for `O=C(NC1CCCCC1)C(=O)[C@H](C[C@@H]1CCNC1=O)NC(=O)[C@H](Cc1ccccc1)NC(=O)c1cc2ccccc2o1` [Example A56] was 24.1 µM.
On the same count and under the same terms, the value for `C[C@@H](NC(=O)C(=O)[C@H](C[C@@H]1CCNC1=O)NC(=O)[C@H](CC1CCCCC1)NC(=O)c1ccc2ccccc2n1)c1ccccc1` [Example A293] was 26.4 µM.
